The subject of one assay is Candida albicans. Nature of the assay: Proliferation assay (growth, OD600nm). The assay is classed as cell-based. To be noted: whole organism growth, OD600nm over 6 hours at 25° C. On the procedure:
(§1) Overnight cultures of organism were diluted back to an OD600nm of 0.1 in fresh media. Test compounds were added in a final concentration of 0.5% DMSO and the OD600nm was followed over 6 hours incubation at 25° C. Compounds described herein were screened to determine their activity as inhibitors of β-1,3-glucan synthase from Candida albicans and Aspergillus fumigatus and for their ability to inhibit the growth of Candida albicans and Aspergillus fumigatus whole organisms.

Another assay has as its system Aspergillus fumigatus. Put plainly: Proliferation assay (growth, OD600nm). To be noted: whole organism growth, OD600nm over 6 hours at 25° C. The assay is classed as cell-based. On the procedure:
as §1

Assay [1] addresses β-1,3-glucan synthase from Aspergillus fumigatus (Aspergillus fumigatus, UniProt Q4WLT4). Nature of the assay: Glucan synthase assay (membrane preparation). The assay is classed as biochemical. To be noted: UDP-[3H]-glucose incorporation, 30° C., 120 minutes, read-out: A. fumigatus Glucan Synth IC50. On the procedure:
(§2) The glucan synthase assay follows the incorporation of tritiated UDP-glucose into acid insoluble β-glucan as catalysed by the glucan synthase activity present in membrane preparations from Candida albicans and Aspergillus fumigatus. UDP-[^3H]-glucose (ca 0.01 μCi) is added to 100 μl assay buffer (50 mM Tris-Cl, pH8.0, 8% glycerol, 1 mM EDTA, 1.5 mM KF, 1 mM DTT, 20 μM GTPγS, 600 μM UDP-glucose) and the reaction initiated by the addition of 2.5 μl of enzyme preparation.
(§3) After incubation at 30° C. for 120 minutes, 10 μl of 30 mg/ml BSA is added with mixing and the reaction is terminated with 110 μl ice-cold 20% TCA. The precipitate is collected on a GF/B filter plate and washed three times with 200 μl water. Once dry, 200 μl of Microscint20 is added to each well and the plate is read on a Top-count scintillation counter.

Assay [2] concerns the target β-1,3-glucan synthase from Candida albicans (Candida albicans, UniProt O13428). Put plainly: Glucan synthase assay (membrane preparation). The assay is classed as biochemical. To be noted: UDP-[3H]-glucose incorporation, 30° C., 120 minutes, read-out: C. albicans Glucan Synth IC50. On the procedure: as §2, §3

SMILES strings stand for the structures.

Data on 7 molecules can be found in patent US8624022B2, “Substituted aniline derivatives” (UCB Pharma, S.A., priority 2006, dated 2014).

β-1,3-glucan synthase from Candida albicans, sequence (O13428 1-1897): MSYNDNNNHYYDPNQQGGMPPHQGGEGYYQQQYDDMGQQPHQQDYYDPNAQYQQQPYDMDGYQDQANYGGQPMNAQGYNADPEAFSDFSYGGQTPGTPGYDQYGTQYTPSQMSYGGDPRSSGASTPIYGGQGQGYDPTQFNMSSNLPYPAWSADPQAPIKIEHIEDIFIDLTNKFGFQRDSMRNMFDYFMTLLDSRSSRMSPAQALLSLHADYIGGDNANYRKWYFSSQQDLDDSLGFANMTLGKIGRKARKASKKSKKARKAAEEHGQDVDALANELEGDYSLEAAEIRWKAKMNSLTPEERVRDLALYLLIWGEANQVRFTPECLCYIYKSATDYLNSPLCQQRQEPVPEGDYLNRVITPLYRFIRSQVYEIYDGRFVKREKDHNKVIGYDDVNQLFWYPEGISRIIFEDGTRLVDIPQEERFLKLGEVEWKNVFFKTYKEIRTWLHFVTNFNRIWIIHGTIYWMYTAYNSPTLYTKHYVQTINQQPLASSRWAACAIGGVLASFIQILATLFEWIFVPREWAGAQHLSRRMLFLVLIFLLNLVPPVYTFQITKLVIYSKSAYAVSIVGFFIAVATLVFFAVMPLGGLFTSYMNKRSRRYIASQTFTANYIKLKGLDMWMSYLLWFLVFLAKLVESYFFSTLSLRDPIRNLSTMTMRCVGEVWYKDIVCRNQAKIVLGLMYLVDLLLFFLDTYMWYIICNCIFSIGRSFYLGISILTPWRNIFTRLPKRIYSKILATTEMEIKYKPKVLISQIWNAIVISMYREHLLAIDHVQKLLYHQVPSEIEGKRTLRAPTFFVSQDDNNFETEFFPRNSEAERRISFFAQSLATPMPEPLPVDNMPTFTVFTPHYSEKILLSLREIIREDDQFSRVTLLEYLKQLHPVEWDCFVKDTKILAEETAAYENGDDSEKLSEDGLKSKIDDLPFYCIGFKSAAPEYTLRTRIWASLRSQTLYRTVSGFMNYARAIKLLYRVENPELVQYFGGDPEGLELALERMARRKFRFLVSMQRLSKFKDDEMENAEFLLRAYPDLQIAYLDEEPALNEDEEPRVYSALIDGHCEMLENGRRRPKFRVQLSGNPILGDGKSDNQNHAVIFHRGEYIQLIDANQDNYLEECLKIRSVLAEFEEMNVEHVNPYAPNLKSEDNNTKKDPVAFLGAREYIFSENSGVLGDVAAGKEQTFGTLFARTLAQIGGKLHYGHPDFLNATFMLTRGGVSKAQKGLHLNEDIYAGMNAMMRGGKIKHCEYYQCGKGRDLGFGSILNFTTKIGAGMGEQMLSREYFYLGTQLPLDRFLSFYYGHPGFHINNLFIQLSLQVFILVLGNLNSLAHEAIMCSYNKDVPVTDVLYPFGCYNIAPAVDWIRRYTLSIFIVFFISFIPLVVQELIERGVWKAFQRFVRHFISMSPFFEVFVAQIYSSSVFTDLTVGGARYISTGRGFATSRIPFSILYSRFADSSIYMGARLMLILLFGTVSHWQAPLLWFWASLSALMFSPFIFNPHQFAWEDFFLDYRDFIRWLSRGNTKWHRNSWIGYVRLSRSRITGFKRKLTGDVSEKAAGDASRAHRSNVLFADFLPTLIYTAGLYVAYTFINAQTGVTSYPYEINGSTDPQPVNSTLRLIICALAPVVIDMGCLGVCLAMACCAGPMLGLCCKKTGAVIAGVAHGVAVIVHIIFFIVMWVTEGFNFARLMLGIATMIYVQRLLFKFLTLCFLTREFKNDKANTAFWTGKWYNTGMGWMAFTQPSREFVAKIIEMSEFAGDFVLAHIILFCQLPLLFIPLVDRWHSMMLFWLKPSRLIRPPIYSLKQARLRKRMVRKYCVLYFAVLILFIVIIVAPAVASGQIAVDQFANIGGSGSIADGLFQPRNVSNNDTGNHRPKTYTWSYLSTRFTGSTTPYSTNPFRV
β-1,3-glucan synthase from Aspergillus fumigatus, sequence (Q4WLT4 1-1904): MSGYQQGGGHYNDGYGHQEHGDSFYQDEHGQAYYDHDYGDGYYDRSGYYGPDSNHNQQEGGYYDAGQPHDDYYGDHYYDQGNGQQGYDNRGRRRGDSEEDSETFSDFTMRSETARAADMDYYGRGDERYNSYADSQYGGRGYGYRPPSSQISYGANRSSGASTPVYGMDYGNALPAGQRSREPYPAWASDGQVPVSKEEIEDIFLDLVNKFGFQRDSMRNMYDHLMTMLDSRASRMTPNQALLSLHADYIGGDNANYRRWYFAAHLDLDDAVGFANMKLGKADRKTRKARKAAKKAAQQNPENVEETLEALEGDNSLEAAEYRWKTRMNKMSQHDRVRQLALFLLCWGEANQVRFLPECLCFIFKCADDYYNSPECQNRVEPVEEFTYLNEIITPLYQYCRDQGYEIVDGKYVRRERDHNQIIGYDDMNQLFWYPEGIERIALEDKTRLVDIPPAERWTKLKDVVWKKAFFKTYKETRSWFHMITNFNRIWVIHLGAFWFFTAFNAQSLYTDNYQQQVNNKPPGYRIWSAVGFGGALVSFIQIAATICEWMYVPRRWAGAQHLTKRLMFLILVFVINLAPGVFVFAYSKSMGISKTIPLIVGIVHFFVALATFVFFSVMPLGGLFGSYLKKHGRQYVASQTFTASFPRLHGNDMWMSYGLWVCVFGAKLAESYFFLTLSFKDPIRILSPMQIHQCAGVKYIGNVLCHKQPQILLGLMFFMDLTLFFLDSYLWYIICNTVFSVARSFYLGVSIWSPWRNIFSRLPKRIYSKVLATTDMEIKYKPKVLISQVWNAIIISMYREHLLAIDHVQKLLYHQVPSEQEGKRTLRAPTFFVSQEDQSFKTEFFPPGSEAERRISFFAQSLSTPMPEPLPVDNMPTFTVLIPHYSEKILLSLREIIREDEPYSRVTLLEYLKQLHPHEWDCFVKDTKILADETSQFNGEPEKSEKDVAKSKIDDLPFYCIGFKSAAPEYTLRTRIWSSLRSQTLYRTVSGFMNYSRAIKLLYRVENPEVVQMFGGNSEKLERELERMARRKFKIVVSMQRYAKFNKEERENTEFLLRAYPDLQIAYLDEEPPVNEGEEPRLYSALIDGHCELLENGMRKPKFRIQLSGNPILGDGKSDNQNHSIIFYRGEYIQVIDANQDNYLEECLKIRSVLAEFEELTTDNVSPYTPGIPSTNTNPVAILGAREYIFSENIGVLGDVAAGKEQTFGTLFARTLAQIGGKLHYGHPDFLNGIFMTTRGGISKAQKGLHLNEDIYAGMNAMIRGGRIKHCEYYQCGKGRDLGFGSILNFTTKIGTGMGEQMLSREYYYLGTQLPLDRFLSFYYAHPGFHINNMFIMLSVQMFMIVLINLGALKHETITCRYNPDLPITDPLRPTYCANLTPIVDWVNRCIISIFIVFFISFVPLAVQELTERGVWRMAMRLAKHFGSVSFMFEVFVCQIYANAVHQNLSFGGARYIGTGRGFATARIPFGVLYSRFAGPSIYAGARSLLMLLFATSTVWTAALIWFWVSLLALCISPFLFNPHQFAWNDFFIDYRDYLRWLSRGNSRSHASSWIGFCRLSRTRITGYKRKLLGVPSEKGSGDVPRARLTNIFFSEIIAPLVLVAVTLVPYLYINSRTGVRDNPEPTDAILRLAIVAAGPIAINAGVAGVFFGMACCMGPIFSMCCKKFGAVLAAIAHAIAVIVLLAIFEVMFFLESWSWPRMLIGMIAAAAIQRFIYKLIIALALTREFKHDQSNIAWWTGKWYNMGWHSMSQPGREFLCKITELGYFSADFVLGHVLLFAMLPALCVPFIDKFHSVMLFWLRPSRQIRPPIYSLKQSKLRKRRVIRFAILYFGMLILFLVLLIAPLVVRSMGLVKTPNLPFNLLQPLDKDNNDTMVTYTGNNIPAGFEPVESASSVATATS

Consider `CCOC(=O)c1cccc(-c2ccc(N(CC(=O)N3CC[C@H](N)C3)C(=O)/C=C/c3ccccc3)cc2)c1` [OGT4355, 4′-{[2-((S)-3-Aminopyrrolidin-1-yl)-2-oxo-ethyl]-[(E)-(3-phenylacryloyl)]-amino}-biphenyl-3-carboxylic acid, ethyl ester], for which the concentration for half-maximal inhibition (IC50) worked out at 18 µM in the assay on Candida albicans and 4 µM in the assay on Aspergillus fumigatus.

Consider `N[C@H]1CCN(C(=O)CN(C(=O)/C=C/c2ccccc2)c2ccc(Oc3ccccc3)cc2)C1` [OGT4344, (E)-N-[2-((S)-3-Aminopyrrolidin-1-yl)-2-oxo-ethyl]-N-(4-phenoxyphenyl)-3-phenylacrylamide], for which the IC50 in assay [1] stood at 49 µM; in assay [2], 34 µM; in the assay with Candida albicans, 27 µM; in the assay with Aspergillus fumigatus, 12 µM.

As for `N[C@H]1CCN(C(=O)CN(C(=O)/C=C/c2ccccc2)c2ccc(-c3cccc(OC(F)(F)F)c3)cc2)C1` [OGT4325, (E)-N-[2-((S)-3-Aminopyrrolidin-1-yl)-2-oxo-ethyl]-3-phenyl-N-(3′-trifluoromethoxy-biphenyl-4-yl)-acrylamide], the figures for the IC50 (in assay [1]; in assay [2]; with Candida albicans) were 15.6 µM, 8.5 µM and 8 µM, respectively.

On to `N[C@H]1CCN(C(=O)CN(CC(=O)NCc2cccc(Cl)c2)c2ccc(Oc3ccccc3)cc2)C1` [OGT4154, 2-[[2-((S)-3-Aminopyrrolidin-1-yl)-2-oxo-ethyl]-(4-phenoxyphenyl)amino]-N-(3-chlorobenzyl)acetamide], for which the concentration for half-maximal inhibition (IC50) with Candida albicans came out at 22 µM; in the assay on Aspergillus fumigatus, 12 µM.

As for `N[C@H]1CCN(C(=O)CN(CC(=O)NCc2cccc(Cl)c2)c2ccccc2Oc2ccccc2)C1` [OGT3935, 2-[[2-((S)-3-Aminopyrrolidin-1-yl)-2-oxo-ethyl]-(2-phenoxyphenyl)amino]-N-(3-chlorobenzyl)acetamide], the IC50 in assay [1] was determined as 38 µM; in assay [2] it was 12 µM; in the assay with Candida albicans it was 55 µM; in the assay on Aspergillus fumigatus it was 93 µM.

Take `N[C@H]1CCN(C(=O)CN(CC(=O)NCc2cc(C(F)(F)F)cc(C(F)(F)F)c2)c2cccc(Oc3ccccc3)c2)C1` [OGT4165, 2-[[2-((S)-3-Aminopyrrolidin-1-yl)-2-oxo-ethyl]-(3-phenoxyphenyl)amino]-N-[3,5-bis-(trifluoromethyl)benzyl]acetamide]: the IC50 in assay [1] was determined as 6.2 µM; in assay [2], 2.7 µM; in the assay on Candida albicans it was 19 µM; in the assay with Aspergillus fumigatus it was 43 µM.

In the case of `N[C@H]1CCN(C(=O)CN(CC(=O)NCc2cc(F)cc(C(F)(F)F)c2)c2ccc(Oc3ccccc3)cc2)C1` [OGT4155, 2-[[2-((S)-3-Aminopyrrolidin-1-yl)-2-oxo-ethyl]-(4-phenoxyphenyl)amino]-N-[3-fluoro-5-(trifluoromethyl)benzyl]acetamide], the half-inhibitory concentration (IC50) in assay [1] was found to be 5.2 µM; in assay [2], 5.4 µM; in the assay with Candida albicans, 17 µM; in the assay on Aspergillus fumigatus, 14 µM.

One may read the IC50 as the midpoint of a concentration-inhibition curve.
